The record followed here is ChEMBL document CHEMBL4732219, “Synthesis and evaluation of cyclopentane-based muraymycin analogs targeting MraY” (Eur J Med Chem, 2021).

Usually MIC stands for the least concentration at which growth counts as inhibited. As a reminder, the IC50 is the concentration needed to halve the response being measured. Lower therefore signals greater potency.

≈ marks a conversion by molar mass, not a printed value.

The test system of one assay is Staphylococcus aureus. In words: Antibacterial activity against Staphylococcus aureus SA113 assessed as growth inhibition. The class given is functional.
For assay [1], the target named is T1, Phospho-N-acetylmuramoyl-pentapeptide-transferase (Aquifex aeolicus (strain VF5), UniProt O66465).
T1 sequence (O66465 whole entry): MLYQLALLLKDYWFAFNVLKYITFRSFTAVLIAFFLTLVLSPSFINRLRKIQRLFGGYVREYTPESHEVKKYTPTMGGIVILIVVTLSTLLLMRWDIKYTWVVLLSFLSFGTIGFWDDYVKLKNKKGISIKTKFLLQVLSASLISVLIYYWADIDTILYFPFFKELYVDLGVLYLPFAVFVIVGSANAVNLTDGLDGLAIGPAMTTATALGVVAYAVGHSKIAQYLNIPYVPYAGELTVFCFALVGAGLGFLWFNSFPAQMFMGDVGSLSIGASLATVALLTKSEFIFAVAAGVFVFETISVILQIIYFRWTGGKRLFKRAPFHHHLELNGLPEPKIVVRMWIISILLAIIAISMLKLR
In words: Inhibition of Aquifex aeolicus MraY using UDP-MurNAc-pentapeptide as substrate measured after 5 mins by UMP-Glo glycosyltransferase assay.

Consider `CCCCCCCCCCCCCCCCC(=O)N[C@@H](CCCNC(=N)N)C(=O)NCCCN[C@H](C(=O)OC)[C@H](O[C@@H]1O[C@H](CN)[C@@H](O)[C@H]1O)[C@@H]1CC[C@H](n2ccc(=O)[nH]c2=O)C1`, for which the MIC with Staphylococcus aureus worked out at 54 µg/mL (≈ 60.4 µM). The compound further had an IC50 in assay [1] of 75 µM. On to `CC(C)(C)OC(=O)[C@@H](NC(=O)OCc1ccccc1)[C@H](O[C@@H]1O[C@H](CN)[C@@H](O)[C@H]1O)[C@@H]1CC[C@H](n2ccc(=O)[nH]c2=O)C1`, for which, in assay [1], the IC50 is 340 µM. With `NC[C@H]1O[C@@H](O[C@H]([C@@H]2CC[C@H](n3ccc(=O)[nH]c3=O)C2)[C@H](NC(=O)OCc2ccccc2)C(=O)O)[C@H](O)[C@@H]1O`, the IC50 in assay [1] came out at 500 µM.
